Laboratory results: PMC12892976, “Alkylation-based optimization of antifungal FPPS inhibitors yields a potent, broad-spectrum lipophilic zoledronate derivative” (mBio, 2025)
≈ marks a conversion by molar mass, not a printed value. Where two headings read alike, the source gives them in different places.

Key:
[1] = system: Trichophyton rubrum; assay: MIC/MFC broth microdilution (CLSI); conditions: Trichophyton rubrum
Protocol: (§1) Antifungal susceptibility was determined by broth microdilution according to the CLSI guidelines described in M27-Ed4 ([16]). […] MFC was determined by back-plating drug-treated cultures from MIC broths onto SDA plates. The MFC was defined as the lowest concentration from which no colonies could be cultured.

[2] = system: Cryptococcus neoformans; assay: checkerboard drug interaction (FICI, MICc);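 on all read-outs here: antifungal plus FPPS inhibitor pairs tested against Cryptococcus neoformans by simplified diagonal checkerboard screening, FICI computed under the Loewe additivity model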; assay type: cell-based; conditions: C. neoformans; for INH FD (MIC-MICc fold decrease): fold decrease of inhibitor MIC
Protocol: (§2) Drug interactions between antifungals and FPPS inhibitors were investigated using a simplified checkerboard diagonal screening method ([45]). […] FICIs were determined according to the Loewe additivity model ([17]).

[3] = system: Candida albicans; assay: MIC/MFC broth microdilution (CLSI); assay type: cell-based; conditions: Candida albicans SC5314
Protocol: as §1

[4] = system: Saccharomyces cerevisiae; assay: checkerboard drug interaction (FICI, MICc); assay type: cell-based; set-up: INH MICc / INH MICc (ITR:INH) / INH MICc (KET:INH) / INH MICc (FLC:INH): unit not given beside the values;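 further: simplified diagonal checkerboard screen pairing antifungals with FPPS inhibitors, FICI calculated under the Loewe additivity model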
[5] = system: Trichophyton rubrum; assay: checkerboard drug interaction (FICI, MICc);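 further: simplified diagonal checkerboard screen pairing azole antifungals with FPPS inhibitors, FICI calculated under the Loewe additivity model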; assay type: cell-based; conditions: T. rubrum
Protocol: as §2

[6] = system: Cryptococcus deuterogattii; assay: MIC/MFC broth microdilution (CLSI); conditions: Cryptococcus deuterogattii;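 further: broth microdilution per CLSI M27-Ed4. MFC is the lowest concentration yielding no colonies when MIC broths are subcultured onto SDA plates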
Protocol: as §1

[7] = system: Aspergillus flavus; assay: MIC/MFC broth microdilution (CLSI); conditions: ATCC204304
Protocol: as §1

[8] = system: Cryptococcus neoformans; assay: MIC/MFC broth microdilution (CLSI); conditions: Cryptococcus neoformans;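 further: susceptibility testing followed the CLSI M27-Ed4 broth microdilution document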
Protocol: as §1

[9] = system: Candida glabrata; assay: checkerboard drug interaction (FICI, MICc);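 on all read-outs here: simplified diagonal checkerboard screen pairing antifungals with FPPS inhibitors, FICI calculated under the Loewe additivity model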; assay type: cell-based; conditions: C. glabrata; for INH FD (MIC-MICc fold decrease): fold decrease of inhibitor MIC
Protocol: as §2

[10] = system: Candida albicans; assay: checkerboard drug interaction (FICI, MICc);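 on all read-outs here: antifungal plus FPPS inhibitor combinations on Candida albicans tested by a simplified diagonal checkerboard screen, with FICI calculated under the Loewe additivity model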; assay type: cell-based; conditions: C. albicans; for INH FD (MIC-MICc fold decrease): fold decrease of inhibitor MIC
Protocol: as §2

[11] = system: Aspergillus fumigatus; assay: MIC/MFC broth microdilution (CLSI); conditions: ATCC204305
Protocol: as §1

[12] = system: eight fungal species; assay: MIC/MFC summary across the eight fungal species of Table 1; assay type: cell-based
Protocol: The antifungal activity of these compounds was evaluated according to CLSI guidelines ([16]).

[13] = system: Aspergillus flavus; assay: checkerboard drug interaction (FICI, MICc);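 further: simplified diagonal checkerboard screen pairing azole antifungals with FPPS inhibitors, FICI calculated under the Loewe additivity model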; assay type: cell-based; set-up: INH MICc (KET:INH) / INH MICc (FLC:INH): unit not given beside the values; conditions: A. flavus
[14] = system: eight fungal species; assay: checkerboard interaction with azoles, summary across the eight species; assay type: cell-based; conditions: geometric mean MIC in combination with azoles
Excerpt: Synergy between lipophilic FPPS inhibitors and azole antifungals was investigated by determining the fractional inhibitory concentration index (FICI) (Fig. 2; Table S1 Fig. S1) ([17]). […]. Derivatives PLA9 and 11, and PDA9, 11, and 12 antagonized azoles in C. albicans, C. neoformans, and C. deuterogattii, yet were largely synergistic in C. glabrata and S. cerevisiae. […].

[15] = system: Aspergillus fumigatus; assay: checkerboard drug interaction (FICI, MICc); assay type: cell-based;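 further: simplified diagonal checkerboard screen pairing antifungals with FPPS inhibitors against Aspergillus fumigatus, with FICI calculated under the Loewe additivity model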
Protocol: as §2

[16] = system: Candida glabrata; assay: MIC/MFC broth microdilution (CLSI); conditions: Nakaseomyces glabratus, CBS138;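 further: broth microdilution following CLSI M27-Ed4, MFC taken as the lowest drug level yielding no growth once MIC wells were subcultured on SDA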
Protocol: as §1

[17] = system: HEK-293T cells; assay: MTT reduction cytotoxicity assay; assay type: cell-based; conditions: Homo sapiens, HEK-293T, 72 h, HEK-293T, MTT, 72 h; read-out: HEK IC50
[18] = system: Saccharomyces cerevisiae; assay: MIC/MFC broth microdilution (CLSI); assay type: cell-based; conditions: Saccharomyces cerevisiae S288c
Protocol: as §1

[19] = system: Cryptococcus deuterogattii; assay: checkerboard drug interaction (FICI, MICc);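 on all read-outs here: simplified diagonal checkerboard screen pairing antifungal drugs with FPPS inhibitors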; assay type: cell-based; conditions: C. deuterogattii; for INH FD (MIC-MICc fold decrease): fold decrease of inhibitor MIC
Protocol: as §2

[20] = FLC:INH combination, MIC of the inhibitor in combination with FLC
[21] = FLC:INH combination, fold decrease of FLC MIC
[22] = ITR:INH combination, MIC of the inhibitor in combination with ITR
[23] = ITR:INH combination, fold decrease of ITR MIC
[24] = KET:INH combination, MIC of the inhibitor in combination with KET
[25] = KET:INH combination, fold decrease of KET MIC
[26] = Fractional Inhibitory Concentration Index, fluconazole + inhibitor
[27] = Fractional Inhibitory Concentration Index, itraconazole + inhibitor
[28] = Fractional Inhibitory Concentration Index, ketoconazole + inhibitor
[29] = MIC of the inhibitor in combination with fluconazole
[30] = MIC of the inhibitor in combination with itraconazole
[31] = MIC of the inhibitor in combination with ketoconazole
[32] = MIC-MICc fold decrease of fluconazole, negative = increase
[33] = MIC-MICc fold decrease of itraconazole, negative = increase
[34] = MIC-MICc fold decrease of ketoconazole, negative = increase
[35] = MIC-MICc fold decrease of the inhibitor, with fluconazole
[36] = MIC-MICc fold decrease of the inhibitor, with itraconazole
[37] = MIC-MICc fold decrease of the inhibitor, with ketoconazole

`CCCCCCCCCCN1CCC[C@H]1C(=O)N[C@H](CC(=O)OC)C(=O)OC` [dmPDA10] was tested, and the MFC [1] was > 128 µg/mL, the MIC [1] was 8 µg/mL (≈ 20.1 µM) and the FICI ([2]; FLC:INH combination) was 0.75. The “INH MICc” value [2, 20] was 8, the “FLC FD (MIC-MICc fold decrease)” value [2, 21] was 4 and the “INH FD (MIC-MICc fold decrease)” value ([2]; FLC:INH combination) was 2. The FICI ([2]; ITR:INH combination) was 0.75, the “INH MICc” value [2, 22] was 8 and the “ITR FD (MIC-MICc fold decrease)” value [2, 23] was 4. For the same compound, the “INH FD (MIC-MICc fold decrease)” value ([2]; ITR:INH combination) was 2, the FICI ([2]; KET:INH combination) was 0.75 and the “INH MICc” value [2, 24] was 8. The “KET FD (MIC-MICc fold decrease)” value [2, 25] was 4, the “INH FD (MIC-MICc fold decrease)” value ([2]; KET:INH combination) was 2 and the MFC [3] was 32 µg/mL (≈ 80.3 µM). For the same compound, the MIC [3] was 16 µg/mL (≈ 40.1 µM), the “FICI (FLC:INH)” value [4, 26] was ≥4 and the “FICI (ITR:INH)” value [4, 27] was 3. The “FICI (KET:INH)” value [4, 28] was 1.13, the “INH MICc (FLC:INH)” value [4, 29] was 32 and the “INH MICc (ITR:INH)” value [4, 30] was 16. The “INH MICc (KET:INH)” value [4, 31] was 16, the “FLC FD (FLC:INH)” value [4, 32] was -2 and the “ITR FD (ITR:INH)” value [4, 33] was -2. For the same compound, the “KET FD (KET:INH)” value [4, 34] was 8, the “INH FD (FLC:INH)” value [4, 35] was -2 and the “INH FD (ITR:INH)” value [4, 36] was 1. The “INH FD (KET:INH)” value [4, 37] was 1, the “FICI (FLC:INH)” value [5, 26] was ≥4 and the “FICI (ITR:INH)” value [5, 27] was ≥4. For the same compound, the “FICI (KET:INH)” value [5, 28] was ≥4, the “INH MICc (FLC:INH)” value [5, 29] was 64 and the “INH MICc (ITR:INH)” value [5, 30] was 64. For the same compound, the “INH MICc (KET:INH)” value [5, 31] was 64, the “FLC FD (FLC:INH)” value [5, 32] was 2 and the “ITR FD (ITR:INH)” value [5, 33] was 4. The “KET FD (KET:INH)” value [5, 34] was 2, the “INH FD (FLC:INH)” value [5, 35] was < -4 and the “INH FD (ITR:INH)” value [5, 36] was < -4. The “INH FD (KET:INH)” value [5, 37] was < -4, the MFC [6] was 64 µg/mL (≈ 161 µM) and the MIC [6] was 16 µg/mL (≈ 40.1 µM). The MFC [7] was 64 µg/mL (≈ 161 µM), the MIC [7] was 64 µg/mL (≈ 161 µM) and the MFC [8] was 32 µg/mL (≈ 80.3 µM). For the same compound, the MIC [8] was 16 µg/mL (≈ 40.1 µM), the FICI ([9]; FLC:INH combination) was ≥4 and the “INH MICc” value [9, 20] was 16. For the same compound, the “FLC FD (MIC-MICc fold decrease)” value [9, 21] was 1, the “INH FD (MIC-MICc fold decrease)” value ([9]; FLC:INH combination) was 1 and the FICI ([9]; ITR:INH combination) was 3. For the same compound, the “INH MICc” value [9, 22] was 8, the “ITR FD (MIC-MICc fold decrease)” value [9, 23] was 1 and the “INH FD (MIC-MICc fold decrease)” value ([9]; ITR:INH combination) was 2. The FICI ([9]; KET:INH combination) was ≥4, the “INH MICc” value [9, 24] was 16 and the “KET FD (MIC-MICc fold decrease)” value [9, 25] was -2. For the same compound, the “INH FD (MIC-MICc fold decrease)” value ([9]; KET:INH combination) was 1, the FICI ([10]; FLC:INH combination) was 1.5 and the “INH MICc” value [10, 20] was 8. The “FLC FD (MIC-MICc fold decrease)” value [10, 21] was 1, the “INH FD (MIC-MICc fold decrease)” value ([10]; FLC:INH combination) was 2 and the FICI ([10]; ITR:INH combination) was 0.75. The “INH MICc” value [10, 22] was 4, the “ITR FD (MIC-MICc fold decrease)” value [10, 23] was 2 and the “INH FD (MIC-MICc fold decrease)” value ([10]; ITR:INH combination) was 4. For the same compound, the FICI ([10]; KET:INH combination) was 0.75, the “INH MICc” value [10, 24] was 4 and the “KET FD (MIC-MICc fold decrease)” value [10, 25] was 2. For the same compound, the “INH FD (MIC-MICc fold decrease)” value ([10]; KET:INH combination) was 4, the MFC [11] was 32 µg/mL (≈ 80.3 µM) and the MIC [11] was 32 µg/mL (≈ 80.3 µM). For the same compound, the “Geometric mean MFC” value ([12]; across eight species) was 45.3 µg/mL, the MFC ([12]; across eight species, read-out: Geometric mean MFC) was 45.3 µg/mL (≈ 114 µM) and the MIC ([12]; geometric mean across eight species, read-out: GM fungal MIC) was 20.7 µg/mL (≈ 51.9 µM). The MIC ([12]; read-out: Geometric mean MIC) was 20.7 µg/mL (≈ 51.9 µM), the “FICI (FLC:INH)” value [13, 26] was 0.75 and the “FICI (ITR:INH)” value [13, 27] was 1.5. The “FICI (KET:INH)” value [13, 28] was 0.63, the “INH MICc (FLC:INH)” value [13, 29] was 32 and the “INH MICc (ITR:INH)” value [13, 30] was 32. The “INH MICc (KET:INH)” value [13, 31] was 8, the “FLC FD (FLC:INH)” value [13, 32] was 4 and the “ITR FD (ITR:INH)” value [13, 33] was 1. The “KET FD (KET:INH)” value [13, 34] was 2, the “INH FD (FLC:INH)” value [13, 35] was 2 and the “INH FD (ITR:INH)” value [13, 36] was 2. The “INH FD (KET:INH)” value [13, 37] was 8, the “GM fungal MICc” value [14] was 14.7 and the “FICI (FLC:INH)” value [15, 26] was 2.13. The “FICI (ITR:INH)” value [15, 27] was 0.63, the “FICI (KET:INH)” value [15, 28] was 2.25 and the “INH MICc (FLC:INH)” value [15, 29] was 32. For the same compound, the “INH MICc (ITR:INH)” value [15, 30] was 2, the “INH MICc (KET:INH)” value [15, 31] was 32 and the “FLC FD (FLC:INH)” value [15, 32] was 8. For the same compound, the “ITR FD (ITR:INH)” value [15, 33] was 2, the “KET FD (KET:INH)” value [15, 34] was 4 and the “INH FD (FLC:INH)” value [15, 35] was -2. For the same compound, the “INH FD (ITR:INH)” value [15, 36] was 8, the “INH FD (KET:INH)” value [15, 37] was -2 and the MFC [16] was 32 µg/mL (≈ 80.3 µM). The MIC [16] was 32 µg/mL (≈ 80.3 µM), the IC50 [17] was 1.84 µg/mL (≈ 4.62 µM) and the MFC [18] was 16 µg/mL (≈ 40.1 µM). For the same compound, the MIC [18] was 16 µg/mL (≈ 40.1 µM), the FICI ([19]; FLC:INH combination) was 1.25 and the “INH MICc” value [19, 20] was 16. For the same compound, the “FLC FD (MIC-MICc fold decrease)” value [19, 21] was 4, the “INH FD (MIC-MICc fold decrease)” value ([19]; FLC:INH combination) was 1 and the FICI ([19]; ITR:INH combination) was 1.5. For the same compound, the “INH MICc” value [19, 22] was 16, the “ITR FD (MIC-MICc fold decrease)” value [19, 23] was 2 and the “INH FD (MIC-MICc fold decrease)” value ([19]; ITR:INH combination) was 1. The FICI ([19]; KET:INH combination) was 0.53, the “INH MICc” value [19, 24] was 8 and the “KET FD (MIC-MICc fold decrease)” value [19, 25] was 32. The “INH FD (MIC-MICc fold decrease)” value ([19]; KET:INH combination) was 2.
